Among the test systems are 786-0 renal; A498 renal; A549 NSCLC; COLO 205 colon; HL-60(TB) leukemia; HOP-62 NSCLC; M14 melanoma; NCI-H23 lung; NCI-H460 lung; OVCAR-8 ovarian; SK-MEL-28 melanoma; SNB-75 CNS; U251 CNS.
What all share (experiment): growth of human tumour cells (NCI), 48 h

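Briefly, cells in 96-well plates were exposed to five compound concentrations for 48 h, and endpoints were estimated by linear interpolation. GI50 is the concentration that inhibits growth by half. TGI: concentration producing complete growth inhibition.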 Bounds are passed on as bounds.

In the case of `CCC(=O)NCC1(c2c[nH]c3ccccc23)SCCS1`, the TGI with 786-0 renal, in the experiment with A498 renal, with A549 NSCLC, in the experiment on COLO 205 colon, with HL-60(TB) leukemia and with HOP-62 NSCLC was greater than 100 µM throughout. Moreover, the TGI in the experiment with M14 melanoma, in the experiment with NCI-H23 lung, in the experiment on NCI-H460 lung, with OVCAR-8 ovarian, with SK-MEL-28 melanoma and in the experiment on SNB-75 CNS was greater than 100 µM in each case. Also, in the experiment on U251 CNS, the TGI is greater than 100 µM.

As for `O=C(Cc1ccccc1)NN1C(=O)C(Cl)C1c1cc(Br)cc(Br)c1O` (stereo not given), the TGI in the experiment on 786-0 renal worked out at 36.7 µM; with A549 NSCLC it was 76.1 µM; in the experiment on COLO 205 colon, 44.8 µM; with HL-60(TB) leukemia, 10.1 µM; with HOP-62 NSCLC it was 54 µM; in the experiment on M14 melanoma, 45.6 µM. Moreover, the TGI is 33.2 µM with NCI-H23 lung; 22.4 µM with NCI-H460 lung; greater than 100 µM with OVCAR-8 ovarian; 35.3 µM with SK-MEL-28 melanoma; 56.1 µM in the experiment with SNB-75 CNS; 31.4 µM in the experiment with U251 CNS.

With `CC(=O)C1CC2(c3ccccc3)C(=O)c3ccccc3N2O1` (stereo not given), the TGI in the experiment on 786-0 renal, with A498 renal, with A549 NSCLC, with COLO 205 colon, in the experiment with HL-60(TB) leukemia and with HOP-62 NSCLC was greater than 100 µM throughout. The TGI with M14 melanoma, with NCI-H23 lung, in the experiment on OVCAR-8 ovarian, with SK-MEL-28 melanoma, with SNB-75 CNS and in the experiment on U251 CNS was greater than 100 µM each time.

On to `CCCN(CCC)C(=O)Cc1c2n(c3ccccc13)CCCc1ccccc1-2`, for which the TGI came to 30.6 µM in the experiment on 786-0 renal; 28.2 µM with A549 NSCLC; 29.1 µM in the experiment with COLO 205 colon; 37.1 µM in the experiment on HL-60(TB) leukemia; 30.3 µM in the experiment with HOP-62 NSCLC; 26.4 µM with M14 melanoma. In addition, the TGI in the experiment on NCI-H23 lung amounted to 25.7 µM; in the experiment with NCI-H460 lung it was 29.3 µM; with OVCAR-8 ovarian, 29.9 µM; with SK-MEL-28 melanoma it was 29.9 µM; in the experiment with SNB-75 CNS, 24.4 µM; with U251 CNS, 29.4 µM.

With `CSc1ccc2c(cc1=O)C(NC(=O)c1cc(O)c(OC(=O)O)c(O)c1)CCc1cc(O)c(O)c(O)c1-2` (stereo not given), the TGI with 786-0 renal is greater than 90 µM; in the experiment with A498 renal, greater than 90 µM; in the experiment with A549 NSCLC, 52 µM; with COLO 205 colon, greater than 90 µM; with HL-60(TB) leukemia, 70.3 µM; with HOP-62 NSCLC, 64.5 µM. In addition, the TGI was 30.5 µM in the experiment with M14 melanoma; 42.5 µM in the experiment with NCI-H23 lung; 49.1 µM with NCI-H460 lung; greater than 90 µM in the experiment with OVCAR-8 ovarian; 56.2 µM in the experiment with SK-MEL-28 melanoma; greater than 90 µM in the experiment with SNB-75 CNS. This molecule yielded a TGI with U251 CNS of 32.9 µM.

For the molecule `COc1cc([C@@H]2c3cc4c(cc3[C@@H](NC(=O)c3ccc(C(C)=O)cc3)C3COC(=O)[C@@H]32)OCO4)cc(OC)c1O` (stereo not given in full), the TGI was found to be 1.81 µM in the experiment on 786-0 renal; 5.87 µM in the experiment with A498 renal; 2.41 µM in the experiment with A549 NSCLC; 19.5 µM in the experiment on COLO 205 colon; 0.912 µM in the experiment on HL-60(TB) leukemia; 1.35 µM with HOP-62 NSCLC. In addition, the TGI with M14 melanoma came out at 31.1 µM; with NCI-H23 lung, 1.41 µM; with NCI-H460 lung, 1.53 µM; in the experiment on OVCAR-8 ovarian it was 13.7 µM; with SK-MEL-28 melanoma, 33.6 µM; in the experiment with SNB-75 CNS, 4.99 µM. This molecule also showed a TGI in the experiment on U251 CNS of 1.65 µM.

For `O=S(=O)(O)c1cc(O)c2c(O)c(N=Nc3ccc(/C=C/c4ccc(N=Nc5c(S(=O)(=O)O)cc6cc(S(=O)(=O)O)cc(O)c6c5O)cc4S(=O)(=O)O)c(S(=O)(=O)O)c3)c(S(=O)(=O)O)cc2c1`, the TGI with 786-0 renal, with A498 renal, in the experiment with A549 NSCLC, in the experiment with COLO 205 colon, in the experiment with HL-60(TB) leukemia and in the experiment on HOP-62 NSCLC was greater than 100 µM throughout. The TGI in the experiment with M14 melanoma, in the experiment on NCI-H23 lung, in the experiment with NCI-H460 lung, in the experiment with OVCAR-8 ovarian, in the experiment with SK-MEL-28 melanoma and with SNB-75 CNS was greater than 100 µM in each case. The TGI in the experiment with U251 CNS is greater than 100 µM.

For `C/C(=N\O)C(CN(C)C)C(c1ccccc1)c1c(O)c2ccccc2oc1=O` (stereo not given), the TGI in the experiment on 786-0 renal, with A498 renal, in the experiment on A549 NSCLC, in the experiment with COLO 205 colon, in the experiment with HL-60(TB) leukemia and in the experiment with HOP-62 NSCLC was greater than 100 µM in each case. Moreover, the TGI with M14 melanoma, with NCI-H23 lung, in the experiment on OVCAR-8 ovarian, in the experiment with SK-MEL-28 melanoma, with SNB-75 CNS and in the experiment on U251 CNS was greater than 100 µM throughout.

With `CCN(CC)CCNC(=O)c1ccccc1Nc1c(Cl)cccc1Cl`, the TGI is 19 µM with 786-0 renal; 32.6 µM in the experiment on A549 NSCLC; 26.7 µM in the experiment with COLO 205 colon; 25.5 µM in the experiment on HL-60(TB) leukemia; 24.2 µM with HOP-62 NSCLC; 34.5 µM in the experiment on M14 melanoma. Moreover, the TGI amounted to 33.3 µM with NCI-H23 lung; 16 µM in the experiment on NCI-H460 lung; 31.5 µM with OVCAR-8 ovarian; 33 µM with SK-MEL-28 melanoma; 23.8 µM with SNB-75 CNS; 20.7 µM with U251 CNS.

Turning to `CCOP(=O)(C/C(=N/NC(C)(C)C)C(=O)Nc1nc2ccc(C)cc2s1)OCC`, the TGI in the experiment with 786-0 renal, with A498 renal, with A549 NSCLC, in the experiment with COLO 205 colon, with HL-60(TB) leukemia and in the experiment on HOP-62 NSCLC was greater than 100 µM in each case. For the same molecule, the TGI with M14 melanoma, in the experiment on NCI-H23 lung, with NCI-H460 lung, in the experiment on OVCAR-8 ovarian, in the experiment on SK-MEL-28 melanoma and in the experiment with SNB-75 CNS was greater than 100 µM each time. This molecule came in with a TGI with U251 CNS greater than 100 µM.

Take `CCCC/C=C1\CCC(CN2CCOCC2)C1=O` (stereo not given): the TGI in the experiment on 786-0 renal was 4.25 µM; in the experiment with A498 renal it was 27.4 µM; with A549 NSCLC, 46.2 µM; in the experiment with COLO 205 colon, 9.49 µM; in the experiment with HL-60(TB) leukemia it was 5.61 µM; in the experiment on HOP-62 NSCLC, 30.2 µM. Besides, the TGI in the experiment on M14 melanoma worked out at 10.3 µM; with NCI-H23 lung, 12.2 µM; in the experiment with NCI-H460 lung it was 38.2 µM; in the experiment with OVCAR-8 ovarian, 22.5 µM; in the experiment with SK-MEL-28 melanoma it was 7.97 µM; in the experiment with SNB-75 CNS it was 20.7 µM. This molecule came in with a TGI with U251 CNS of 8.35 µM. The GI50 in the experiment with HL-60(TB) leukemia was 0.566 µM.

Take `C/C(CC(=O)Nc1ccc(C)cc1)=N\NC(N)=S`: the TGI in the experiment with 786-0 renal, with A498 renal, in the experiment on A549 NSCLC, in the experiment on COLO 205 colon, with HL-60(TB) leukemia and in the experiment with HOP-62 NSCLC was greater than 100 µM in each case. Besides, the TGI with M14 melanoma, with NCI-H23 lung, with NCI-H460 lung, with OVCAR-8 ovarian, in the experiment on SK-MEL-28 melanoma and with SNB-75 CNS was greater than 100 µM throughout. For the same molecule, in the experiment with U251 CNS, the TGI is greater than 100 µM.

In the case of `COC(=O)C(=O)C(C(=O)C(=O)Nc1ccc([N+](=O)[O-])cc1C#N)c1nc2ccc([N+](=O)[O-])cc2[nH]c1=O` (stereo not given), the TGI with 786-0 renal, in the experiment on A498 renal, in the experiment with A549 NSCLC, in the experiment with COLO 205 colon, with HL-60(TB) leukemia and in the experiment on HOP-62 NSCLC was greater than 100 µM in each case. Besides, the TGI in the experiment on M14 melanoma, with NCI-H460 lung, with OVCAR-8 ovarian, with SNB-75 CNS and in the experiment on U251 CNS was greater than 100 µM each time.

As for `CC1(Br)C(=O)NC(=O)N([C@H]2C[C@H](O)[C@@H](CO)O2)C1N=[N+]=[N-]` (stereo not given in full), the TGI in the experiment on 786-0 renal, in the experiment on A498 renal, in the experiment on A549 NSCLC, with COLO 205 colon, in the experiment with HL-60(TB) leukemia and with HOP-62 NSCLC was greater than 100 µM each time. The TGI in the experiment with M14 melanoma, in the experiment on NCI-H23 lung, with NCI-H460 lung, in the experiment with OVCAR-8 ovarian, in the experiment on SK-MEL-28 melanoma and in the experiment on SNB-75 CNS was greater than 100 µM throughout. For the same molecule, in the experiment on U251 CNS, the TGI is greater than 100 µM.

As to `CN1C(=O)c2cccc3c([N+](=O)[O-])ccc(c23)C1=O`, the TGI stood at 21 µM with 786-0 renal; 5.64 µM with A498 renal; 26.8 µM in the experiment with A549 NSCLC; 19.8 µM with COLO 205 colon; 24.7 µM with HOP-62 NSCLC; 23.1 µM in the experiment with M14 melanoma. The TGI in the experiment with NCI-H23 lung came out at 24.7 µM; with NCI-H460 lung, 11.7 µM; in the experiment on OVCAR-8 ovarian, 18.9 µM; in the experiment on SK-MEL-28 melanoma, 32.9 µM; in the experiment with SNB-75 CNS, 25.1 µM; in the experiment with U251 CNS it was 13.8 µM.

Consider `O=C1c2ccccc2N2OC3C4CCC(C4)C3C12c1ccccc1` (stereo not given), for which the TGI with 786-0 renal, in the experiment on A498 renal, in the experiment with A549 NSCLC, with COLO 205 colon, in the experiment on HL-60(TB) leukemia and in the experiment on HOP-62 NSCLC was greater than 100 µM in each case. Further, the TGI with M14 melanoma, in the experiment on NCI-H23 lung, in the experiment on OVCAR-8 ovarian, with SK-MEL-28 melanoma, in the experiment on SNB-75 CNS and with U251 CNS was greater than 100 µM each time.

Values taken from PubChem BioAssay (NCI).
